Measurements published in ChEMBL document CHEMBL1201862, “PubChem BioAssay data set” (2004).
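The compound was tested at five concentrations on cells cultured in 96-well plates, with a 48-hour exposure period. GI50 = concentration required for 50% inhibition of growth.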 Activity calls are given as the source filed them. No stated cut-off is given here; in the data, active = GI50 up to about 1.1 µM and inactive = higher.

How the values were obtained:
Assay in all cases: NCI anticancer screen, dose series, 48 h
A498 = tested on: A498
BT-549 = tested on: BT-549
DU-145 = tested on: DU-145
HCC 2998 = tested on: HCC 2998
HOP-62 = tested on: HOP-62
KM12 = tested on: KM12
LOX IMVI = tested on: LOX IMVI
MDA-MB-231 = tested on: MDA-MB-231
NCI-H23 = tested on: NCI-H23
NCI-H460 = tested on: NCI-H460
SF-268 = tested on: SF-268
SF-539 = tested on: SF-539
SK-MEL-2 = tested on: SK-MEL-2
SK-MEL-5 = tested on: SK-MEL-5
SN12C = tested on: SN12C
SNB-75 = tested on: SNB-75
T47D = tested on: T47D
UACC-62 = tested on: UACC-62
UO-31 = tested on: UO-31
OVCAR-4 = tested on: OVCAR-4

Measured: GI50

O=C(/C=C/c1ccc(O)c(O)c1)OCCc1ccc2ccccc2c1
inactive: A498 15.2 µM | BT-549 2.91 µM | DU-145 11.9 µM | HCC 2998 17 µM | HOP-62 13.2 µM | KM12 3.64 µM | LOX IMVI 6.98 µM | MDA-MB-231 10.6 µM | NCI-H23 3.42 µM | NCI-H460 7.05 µM | SF-268 10.9 µM | SF-539 5.83 µM | SK-MEL-2 1.29 µM | SK-MEL-5 3.15 µM | SN12C 5.26 µM | SNB-75 1.87 µM | T47D 4.67 µM | UACC-62 3.69 µM | UO-31 3.19 µM

O=c1[nH]c(=O)n(COCc2ccccc2)c2ccsc12
inactive: A498 > 100 µM | BT-549 > 100 µM | DU-145 > 100 µM | HCC 2998 > 100 µM | HOP-62 96.4 µM | KM12 > 100 µM | LOX IMVI > 100 µM | MDA-MB-231 > 100 µM | NCI-H460 55.8 µM | OVCAR-4 > 100 µM | SF-268 > 100 µM | SF-539 66.8 µM | SK-MEL-2 > 100 µM | SK-MEL-5 > 100 µM | SN12C > 100 µM | SNB-75 75 µM | T47D > 100 µM

CCOC(=O)NC(OCCN(C)C)(C(F)(F)F)C(F)(F)F
inactive: A498 > 100 µM | BT-549 > 100 µM | DU-145 > 100 µM | HCC 2998 > 100 µM | HOP-62 > 100 µM | KM12 > 100 µM | LOX IMVI > 100 µM | MDA-MB-231 > 100 µM | NCI-H23 > 100 µM | NCI-H460 > 100 µM | SF-268 > 100 µM | SF-539 > 100 µM | SK-MEL-2 > 100 µM | SK-MEL-5 > 100 µM | SN12C > 100 µM | SNB-75 > 100 µM | T47D > 100 µM | UACC-62 > 100 µM | UO-31 > 100 µM

CN(C)c1ccc(/C=C2\N=C(c3ccc([N+](=O)[O-])cc3)OC2=O)cc1
inactive: A498 > 100 µM | BT-549 71.6 µM | DU-145 > 100 µM | HCC 2998 27.4 µM | HOP-62 > 100 µM | KM12 67.5 µM | LOX IMVI 23.1 µM | MDA-MB-231 64.6 µM | NCI-H23 45.1 µM | NCI-H460 71 µM | OVCAR-4 > 100 µM | SF-268 71.6 µM | SF-539 74.5 µM | SK-MEL-2 > 100 µM | SK-MEL-5 > 100 µM | SN12C > 100 µM | SNB-75 > 100 µM | T47D 48.4 µM | UACC-62 65.9 µM

O=C1C[C@@H](c2ccccc2)NCCCCN(O)CCCN1
inactive: A498 > 100 µM | BT-549 > 100 µM | DU-145 > 100 µM | HCC 2998 > 100 µM | HOP-62 > 100 µM | KM12 > 100 µM | LOX IMVI > 100 µM | MDA-MB-231 > 100 µM | NCI-H23 > 100 µM | OVCAR-4 88.5 µM | SF-268 > 100 µM | SF-539 > 100 µM | SK-MEL-2 > 100 µM | SK-MEL-5 > 100 µM | SN12C > 100 µM | SNB-75 > 100 µM | T47D > 100 µM | UACC-62 > 100 µM | UO-31 > 100 µM

O=c1[nH]c2nc[nH]c2c(=O)n1C1CCCCC1
inactive: A498 > 100 µM | BT-549 > 100 µM | DU-145 > 100 µM | HCC 2998 > 100 µM | HOP-62 > 100 µM | KM12 > 100 µM | MDA-MB-231 > 100 µM | NCI-H23 > 100 µM | NCI-H460 > 100 µM | OVCAR-4 > 100 µM | SF-268 > 100 µM | SF-539 > 100 µM | SK-MEL-2 72.9 µM | SK-MEL-5 > 100 µM | SN12C > 100 µM | SNB-75 > 100 µM | T47D > 100 µM | UACC-62 > 100 µM | UO-31 > 100 µM
